From EP0851756B1, “USE OF ONDANSETRON IN THE MANUFACTURE OF A MEDICAMENT FOR THE TREATMENT OF TREMOR” (GLAXO GROUP LIMITED, priority 1995, dated 1997)
Where “and” joins values, the source holds several entries; their conditions need not be identical. Identical values can stand only once.

How the values were obtained:
Format in all cases: in vivo, patients
[1] = system: cerebellar tremor caused by MS, cerebellar degeneration or drug toxicity; assay: Placebo-controlled, double blind, crossover study: time to complete a nine-hole peg test
Procedure: (§1) A placebo-controlled, double blind, crossover study of intravenous ondansetron in twenty patients with cerebellar tremor caused by MS, cerebellar degeneration or drug toxicity was conducted. Most had tremor based upon cerebellar involvement from MS; three had familial degenerative disorders involving the cerebellum and one had acquired lithium toxicity. The clinical information and prior treatment of the patients is outlined below in Table 1. Patients were randomly assigned to receive intravenous ondansetron (8mg or a placebo, consisting of normal saline). The drug was given by intravenous bolus injection. Patients were given the alternate agent at a later interval. The principal outcome measure was the change in manual co-ordination tasks as assessed by spiral copying, word copying or line drawing and the time to complete a nine-hole peg test. Only 12 patients had sufficient co-ordination to complete the nine-hole peg test. The clinical outcome was measured at baseline and one hour following the infusion.

[2] = system: cerebellar tremor caused by MS, cerebellar degeneration or drug toxicity; assay: Clinical observations: tolerability, long-term use, withdrawal, oral dosing
[3] = system: cerebellar tremor caused by MS, cerebellar degeneration or drug toxicity; assay: Placebo-controlled, double blind, crossover study: subjective response and patient identification of treatment assignment; design: key to Subjective drug response: 0 = none; + = a little; ++ = moderate; +++ = a lot of improvement
Procedure: as §1, with “The” for “The principal outcome measure was the change in manual co-ordination tasks as assessed by spiral copying, word copying or line drawing and the time to complete a nine-hole peg test. Only 12 patients had sufficient co-ordination to complete the nine-hole peg test. The”, “infusion. Patient identification of treatment assignment was correct in 12/20 instances and this was based upon efficacy. None believed placebo to be better (p=0.014; Fisher exact ratio).” for “infusion.”

[4] = system: cerebellar tremor caused by MS, cerebellar degeneration or drug toxicity; assay: Placebo-controlled, double blind, crossover study: manual co-ordination (spiral copying, word copying or line drawing) judged by blind observers; design: key to Spiral Writing drug: 0 = none; + = a little; ++ = moderate; +++ = a lot of improvement
Procedure: as §1, with “infusion. Figures 1 (a), (b) and (c) represent an attempt to copy a spiral by the first mentioned patient in Table 1. Figure 1(a) represents an attempt prior to treatment with ondansetron; figure 1(b) an attempt after receiving placebo; and figure 1 (c) an attempt after receiving ondansetron.” for “infusion.”

[5] = individual patients, 8mg intravenous bolus, baseline vs one hour following the infusion

`Cc1nccn1CC1CCc2c(c3ccccc3n2C)C1=O` (stereo not drawn) [ondansetron, 1,2,3,9-tetrahydro-9-methyl-3-[(2-methyl-1H-imidazol-1-yl)methyl]-4H-carbazol-4-one] was tested, and the “9 hole peg-drug” value ([1]; individual patients, 8mg intravenous bolus, one hour following the infusion) was 110 secs and 63 secs and 155 secs and 55 secs (2×) and 48 secs and 180 secs and 85 secs and 57 secs and 45 secs and 70 secs and 29 secs, the “9 hole peg-drug (secs), Mean” value ([1]; mean of 12 patients, 8mg intravenous, placebo 87±12) was 79 ± 13 s and the “mean time for the completion of the nine hole peg test” value ([1]; ± standard error, 8mg intravenous, placebo 87 ± 12, p=0.04 (Mann Whitney, one tailed, paired)) was 79 ± 13 s. The “sustaining of the effect in the long term” value ([2]; long term use) was “could be sustained in the long term”, the “reproduction of the effect of intravenous ondansetron by oral dosing” value ([2]; oral ondansetron (8-16mg)) was “could be reproduced” and the tolerability ([2]; patients with cerebellar tremor) was “well tolerated”. The “tremor after withdrawal of the medication” value ([2]; withdrawal) was “tremor returning to pre-study levels”, the “Patient identification of treatment assignment correct” value ([3]; based upon efficacy, none believed placebo to be better (p=0.014; Fisher exact ratio)) was 12/20 and the Subjective drug response [3, 5] was “++ (5×) and 0 (8×) and + (3×) and +++ (3×) and + (dysarthria)”. The speech after treatment ([3]; one patient with cerebellar degeneration too disabled to complete the tasks (Cd2, Table 1)) was “improved speech”, the “Subjective drug response, Ratio” value ([3]; patients with improvement / patients assessed, 8mg intravenous, placebo 0/18) was 12/20 and the “favourable clinical response, MS subgroup” value ([4]; MS subgroup of 16 patients, number with a response, p=0.001) was 13. For the same compound, the “favourable clinical response identified by a panel of three blind observers” value ([4]; entire study group, 8mg intravenous, p=0.009 vs placebo (Fisher exact ratio)) was 13 of the 20, the “Spiral Writing drug” value [4, 5] was “+ (6×) and +++ (4×) and ++ (4×) and 0 (5×)” and the “Spiral Writing drug, Ratio” value ([4]; patients with improvement / patients assessed, 8mg intravenous, placebo 1/19) was 13/19.
